Key:
[1] = test system: CRC, PC and BC cell lines; assay: Boyden chamber NPY-mediated chemotactic migration, CRC, PC and BC cell lines; type: cell-based
Text: (§1) Normal human epidermal melanocytes (NHEM), the human primary melanoma cell lines Mel Juso, Mel Ei, Mel Wei and metastatic human melanoma cell lines SkMel28 (ATCC CRL-1469™), Mel Im, Mel Ju, SkMel3 (ATCC HTB-69™) were described previously (Jacob et al., 1998; Heimerl et al., 2007). Primary human hepatocytes (PHH) were isolated and cultured as described elsewhere (Dietrich et al., 2017; Lee et al., 2013). In addition, the human breast cancer cell line MCF-7 (ATCC HTB-22™), the human pancreatic cancer cell line Panc-1 (ATCC CRL-1469™) and the human colon cancer cell lines HT29 (ATCC HTB-38™), Caco-2 (ATCC HTB-37™) and LoVo (ATCC CCL-229™) were used. The murine melanoma cell line B16 (ATCC CRL-6475™) was used for in vitro and in vivo studies. Furthermore, the murine pancreatic cancer cell line KPC and the murine colon cancer cell lines MC38 and CT26 (ATCC CRL-2638™) were used. Table 4. Summary and additional information of human and murine cell lines. BC: Breast cancer. CRC: Colorectal cancer. Hetero: Heterozygous genotype. Homo: Homozygous genotype. MET: Metastatic melanoma cell line. MM: Malignant melanoma. Nd: not determined / missing. PC: Pancreatic cancer. PT: Primary tumor melanoma cell line. Peri-tumor: Tumor-surrounding liver tissue. IR: immunoreactivity (score).
As described previously (Dietrich et al., 2017), Boyden chamber assays were used in order to analyze cell migration. Boyden chamber filters were additionally coated with Matrigel to analyze cell invasion.

[2] = test system: human melanoma cells (SkMel28); assay: Clonogenicity assays (two- and three-dimensional colony formation), human melanoma cells; type: cell-based; conditions: human (metastatic) melanoma cells
Text: (§2) • Figure 1 A-B. Boyden chamber analysis and representative images (10-fold original magnification) of chemotaxis of human melanoma cells (SkMel28) towards recombinant NPY (lower chamber) with or without application of Y5R specific inhibitor CGP71683 (Y5Ri) (upper chamber) compared to migration towards serum free medium (n = 9). Arrowheads indicate migrated cells. • Figure 2. Representative images of colony number and colony size of human melanoma cells (SkMel28) in clonogenicity assays with application of increasing concentrations of Y5R inhibitor (Y5Ri) (n = 3). • Figure 3. Schematic illustration of the experimental procedure: splenic injection of murine melanoma cells (B16) in C57BL/6 mice on day 0; intraperitoneal injection of Y5R inhibitor CGP71683 (Y5Ri) (15 mg/kg body weight per injection) or solvent only (DMSO) as control on indicated days; end of experiment eight days after cell implantation. • Figure 4. Explanted metastases bearing spleens and livers of DMSO (control) and Y5Ri treated mice after splenic injection of B16 melanoma cells. • Figure 5. Macroscopic classification of livers from DMSO (n = 11) and Y5Ri treated mice (n = 9) into very low / low versus moderate / high liver metastasis. • Figure 6. A. CHK2 level in NPY^-/- mice compared to control WT mice measured by IHC analysis. B. CHK2 level in Y5Ri-treated mice compared to control DMSO-treated mice measured by IHC analysis. • Figure 7. […] A. Quantification of NPY mRNA expression levels in liver tissues from mice treated with control LNPs ("Control", LNPs bearing control siRNA pool, n = 11) and from mice treated with LNPs bearing siRNA pool targeting murine NPY ("LNP-siNPY", n = 11). B. Quantification of NPY protein levels in liver tissues from mice treated with control LNPs (n = 11) and LNP-siNPY treated mice (n = 11). • Figure 9 A-B. ELISA based protein expression analysis of absolute NPY levels in liver tissues and serum samples from LNP-siNPY treated mice (n = 10) compared to mice treated with control LNPs (LNPs bearing control siRNA pool, n = 11) after splenic melanoma cell injection. • Figure 10. […] A. Quantification of number of metastases in liver tissues from LNP-siNPY treated mice (n = 10) compared to mice treated with control LNPs (LNPs bearing control siRNA pool, n = 11). B. Quantification of metastases size in liver tissues from LNP-siNPY treated mice (n = 10) compared to mice treated with control LNPs (LNPs bearing control siRNA pool, n = 11). • Figure 13. […] A. Quantification of pERK protein expression in metastatic liver tissue samples of LNP-siNPY treated mice (n = 6) compared to mice treated with control LNPs (LNPs bearing control siRNA pool, n = 6). […]

[3] = test system: human melanoma cells (SkMel28); assay: Boyden chamber chemotactic migration, human melanoma cells; type: cell-based; conditions: for NPY-induced chemotactic migration: melanoma cells, migration towards recombinant NPY, co-treatment with the substance
Text: as §2

[4] = test system: CRC, PC and BC cell lines; assay: Clonogenicity assays, CRC, PC and BC cell lines; type: cell-based
Text: as §1
As described previously (Dietrich et al., 2017), clonogenic assays were performed to analyze stem cell behavior, attachment dependent colony formation and growth of cancer cells.
Anchorage independent colony formation and growth of cancer cells were analyzed using soft agar colony formation assays as described previously (Borowicz et al., 2014). Treatment with specific agonists and antagonists started 24 h after tumor cell seeding. Treatment was repeated after five and nine days. Microscopic analysis of the obtained colonies was conducted 14 days after tumor cell seeding.

[5] = test system: B16 melanoma cells (liver metastasis); assay: Spleen-liver metastasis model with Y5R inhibitor treatment; type: in vivo, C57BL/6 mice
Text: • Figure 1 A-B. Boyden chamber analysis and representative images (10-fold original magnification) of chemotaxis of human melanoma cells (SkMel28) towards recombinant NPY (lower chamber) with or without application of Y5R specific inhibitor CGP71683 (Y5Ri) (upper chamber) compared to migration towards serum free medium (n = 9). Arrowheads indicate migrated cells. • Figure 2. Representative images of colony number and colony size of human melanoma cells (SkMel28) in clonogenicity assays with application of increasing concentrations of Y5R inhibitor (Y5Ri) (n = 3). • Figure 3. Schematic illustration of the experimental procedure: splenic injection of murine melanoma cells (B16) in C57BL/6 mice on day 0; intraperitoneal injection of Y5R inhibitor CGP71683 (Y5Ri) (15 mg/kg body weight per injection) or solvent only (DMSO) as control on indicated days; end of experiment eight days after cell implantation. • Figure 4. Explanted metastases bearing spleens and livers of DMSO (control) and Y5Ri treated mice after splenic injection of B16 melanoma cells. • Figure 5. Macroscopic classification of livers from DMSO (n = 11) and Y5Ri treated mice (n = 9) into very low / low versus moderate / high liver metastasis. • Figure 6. A. CHK2 level in NPY^-/- mice compared to control WT mice measured by IHC analysis. B. CHK2 level in Y5Ri-treated mice compared to control DMSO-treated mice measured by IHC analysis. • Figure 7. Schematic illustration of the experimental procedure: pre-treatment of C57BL/6 mice with lipid nanoparticles (LNP) bearing control siRNA pool or siNPY pool (pool of siRNAs targeting murine NPY) one day before surgery (day -1); splenic injection of murine melanoma cells (B16) on day 0; intraperitoneal injection of LNPs with control siRNA pool or siNPY pool as indicated; end of experiment six days after cell implantation. • Figure 8. A. Quantification of NPY mRNA expression levels in liver tissues from mice treated with control LNPs ("Control", LNPs bearing control siRNA pool, n = 11) and from mice treated with LNPs bearing siRNA pool targeting murine NPY ("LNP-siNPY", n = 11). B. Quantification of NPY protein levels in liver tissues from mice treated with control LNPs (n = 11) and LNP-siNPY treated mice (n = 11). • Figure 9 A-B. ELISA based protein expression analysis of absolute NPY levels in liver tissues and serum samples from LNP-siNPY treated mice (n = 10) compared to mice treated with control LNPs (LNPs bearing control siRNA pool, n = 11) after splenic melanoma cell injection. • Figure 10. […] A. Quantification of number of metastases in liver tissues from LNP-siNPY treated mice (n = 10) compared to mice treated with control LNPs (LNPs bearing control siRNA pool, n = 11). B. Quantification of metastases size in liver tissues from LNP-siNPY treated mice (n = 10) compared to mice treated with control LNPs (LNPs bearing control siRNA pool, n = 11). • Figure 13. […] A. Quantification of pERK protein expression in metastatic liver tissue samples of LNP-siNPY treated mice (n = 6) compared to mice treated with control LNPs (LNPs bearing control siRNA pool, n = 6). B. Quantification of pCHK2 protein expression in metastatic liver tissue samples of LNP-siNPY treated mice (n = 6) compared to samples from control treatment (control siPool bearing LNPs) (n = 6). • Figure 15. […]

metastatic CRC organoids = assay: Ki67 expression in metastatic CRC organoids; type: cell-based, murine; conditions: vs controls
Description: Murine APTAK organoids were used for in vitro and in vivo experiments. These APTAK tumor organoids are deficient in Apc, Tp53, Tgfbr2 and express constitutively activated Kras and activated Akt1. Organoids were generated and CRC models were conducted in a similar way as previously described (Heichler et al., 2020). In an orthotopic mouse model for CRC and CRC (liver) metastasis, single cell suspensions from genetically engineered APTAK organoids were injected into the submucosa of wildtype mice.
Immunohistochemistry (IHC) and immunofluorescence analyses were performed using tissue microarrays consisting of human cancer tissue samples and mouse paraffin-embedded tissue sections as described previously (Dietrich et al., 2017; Dietrich et al., 2020). […] For each antibody, immunohistochemistry staining was evaluated semi-quantitatively and scores were calculated as described previously (Dietrich et al., 2017; Dietrich et al., 2020).

pCHK2 = pCHK2 levels in melanoma cells in vitro; type: cell-based; conditions: (metastatic) melanoma cells in vitro
Description: As described in detail in previous studies (Dietrich et al., 2017), Western blots and densitometric quantification were performed using the following primary antibodies: anti-β-actin antibody (catalog no. A1978, Sigma-Aldrich; 1 in 5,000 dilution), anti-phospho-ERK antibody (catalog no. #9101, Cell Signaling, Frankfurt am Main, Germany; 1 in 4,000 dilution), anti-ERK antibody (catalog no. #9102, Cell Signaling; 1 in 1,000 dilution), anti-phospho-AKT antibody (catalog no. #9271, Cell Signaling, Frankfurt am Main, Germany; 1 in 2000 dilution), anti-AKT (catalog no. #9272, Cell Signaling, Frankfurt am Main, Germany; 1 in 2000 dilution), anti-Y5R antibody (catalog no. ab133757, Abcam; 1 in 30,000 dilution), anti-phospho-Chk2 antibody (catalog no. #2661, Cell Signaling, Frankfurt am Main, Germany; 1 in 1000 dilution), anti-phospho-p53 antibody (catalog no. #9284, Cell Signaling, Frankfurt am Main, Germany; 1 in 1000 dilution).

Compound: N=C(N)NCCC[C@H](NC(=O)CC1(CC(=O)N2CCN(C3c4ccccc4NC(=O)c4ccccc43)CC2)CCCC1)C(=O)NCCn1c(=O)n(-c2ccccc2)n(-c2ccccc2)c1=O (stereo partly drawn) [Y2Ri]
- NPY-mediated chemotactic migration ([1]; CRC cells): did not affect
- NPY-mediated chemotactic migration ([1]; PC and BC cell lines): not affected
- clonogenicity [2]: not affected
- NPY-induced chemotactic migration [3]: not altered
- clonogenicity ([4]; CRC cells): did not affect
- clonogenicity ([4]; PC and BC cell lines): did not affect clonogenicity

Compound: NC(=O)NCc1ccc(CNC(=O)[C@@H](CCCN=C(N)N)NC(=O)C(c2ccccc2)c2ccccc2)cc1 [Y1Ri]
- NPY-mediated chemotactic migration ([1]; CRC cells): did not affect
- NPY-mediated chemotactic migration ([1]; PC and BC cell lines): sufficient to reduce NPY-mediated chemotactic migration
- clonogenicity [2]: not affected
- NPY-induced chemotactic migration [3]: not altered
- clonogenicity ([4]; CRC cells): did not affect
- clonogenicity ([4]; PC and BC cell lines): did not affect clonogenicity

Compound: CC(=O)O[C@H]1[C@H]2O[C@]23[C@@H]2CC[C@@H]4C[C@@H](O)CC[C@]4(C)[C@H]2CC[C@]3(C)[C@H]1c1ccc(=O)oc1 [Cinobufagin]
- clonogenicity [2]: strongly reduced clonogenicity

Compound: Nc1nc(NC[C@H]2CC[C@H](CNS(=O)(=O)c3cccc4ccccc34)CC2)nc2ccccc12 [Y5Ri, N-[[trans-4-[[(4-amino-2-quinazolinyl)amino]methyl]cyclohexyl]methyl]-1-naphthalenesulfonamide]
- liver transaminases ([5]; mice, 15 mg/kg i.p. every 24 h): did not affect
- cleaved caspase 3 expression in liver metastatic cells ([5]; mice, IHC): only slightly, however not significantly, enhanced
- liver metastasis ([5]; splenic injection of B16 cells, 15 mg/kg i.p. every 24 h, vs vehicle control): significantly reduced liver metastasis
- pCHK2 in liver metastasis ([5]; treated mice vs controls, IHC (Figure 6B)): significant induction
- Ki67 expression in liver metastasis ([5]; treated vs control-treated mice, IHC): significantly reduced
- Ki67 expression (metastatic CRC organoids): significantly reduced Ki67 expression
- clonogenicity [2]: strongly reduced clonogenicity
- chemotactic migration induced by hepatocyte-derived, NPY-containing supernatants or by liver lysates from wildtype mice ([3]; concomitant Y5R-inhibition): significantly reduced
- NPY-induced chemotactic migration [3]: antagonized NPY-induced chemotactic migration
- clonogenicity ([4]; CRC, PC and BC cell lines): confirmed
- pCHK2 levels (pCHK2): induced pCHK2
